Experimental data as given in US20040198731A1, “Aminoalkyl-substituted aromatic bicyclic compounds, methods for their preparation and their use as pharmaceuticals” (Aventis Pharma Deutschland GmbH, priority 2001, published 2004).

Assays:
female NMRI mice = assay: Anorectic action: cumulative milk consumption after oral administration; type: in vivo; details: for cumulative milk consumption by treated animals: feed removed 17 h, monitored for 7 hours, N=5; for Reduction in cumulative milk consumption as % of the control: versus vehicle-treated control animals
Method: The anorectic action was tested on female NMRI mice. After removal of feed for 17 hours, the preparation to be tested was administered by gavage. The animals were housed singly and, with free access to drinking water, they were offered evaporated milk 30 minutes after administration of the preparation. The consumption of evaporated milk was determined and the general behavior of the animals were monitored every half an hour for 7 hours. The measured milk consumption was compared to that of vehicle-treated control animals.

human MCH receptor = target: T1, human MCH receptor (Homo sapiens, UniProt Q99705); assay: Functional measurement of cellular calcium flow (FLIPR) in recombinant HEK293 cells expressing human MCH receptor; type: cell-based; details: cellular assay, calcium flow after addition of agonist (MCH), HEK293 (PEAK Stable Cells) expressing human MCH receptor
T1 construct: expressed in transfected cells
Excerpt: In two simultaneously published articles in Nature (Nature, 400:261-264, 1999; Nature, 400:265-269, 1999, see enclosure), two groups separately described a highly specific receptor for melanin-concentrating hormone (MCH). MCH takes over important functions in the control of food intake. Compounds acting on the MCH receptor therefore have anorectic action and are suitable for the treatment of obesity. The test for anorectic action of the inventive compounds of formula I was therefore carried out as follows.
Functional measurements for determination of IC50
Cloning of the cDNA for human MCH receptor, preparation of a recombinant HEK293 cell line expressing human MCH receptor and functional measurements with said recombinant cell line were carried out according to the description by Audinot et al. (J. Biol. Chem., 276, 13554-13562, 2001). In contrast to the reference, however, plasmid pEAK8 from EDGE Biosystems (USA) was used for constructing the expression vector. A transformed HEK cell line named “PEAK Stable Cells” (likewise from EDGE Biosystems) served as host for transfection. The functional measurements of cellular calcium flow, after addition of agonists (MCH), in the presence of the ligand of the invention was carried out with the aid of the FLIPR instrument from Molecular Devices (USA), using the manufacturer's protocols.

T1 sequence (Q99705 whole entry): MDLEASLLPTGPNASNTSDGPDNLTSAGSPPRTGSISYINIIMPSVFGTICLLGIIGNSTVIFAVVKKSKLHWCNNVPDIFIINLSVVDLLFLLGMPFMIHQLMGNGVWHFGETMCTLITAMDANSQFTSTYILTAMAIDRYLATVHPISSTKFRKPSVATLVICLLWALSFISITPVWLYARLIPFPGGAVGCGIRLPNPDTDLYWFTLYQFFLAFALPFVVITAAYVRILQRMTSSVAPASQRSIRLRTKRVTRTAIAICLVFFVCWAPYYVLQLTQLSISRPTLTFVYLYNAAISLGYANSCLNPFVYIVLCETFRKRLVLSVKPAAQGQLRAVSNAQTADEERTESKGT

Structure (SMILES): CN(C)CCn1cnc2cc(NC(=O)Nc3ccc(Oc4ccccc4)cc3)ccc21 [Example 4, 1-[1-(2-Dimethylaminoethyl)-1H-benzoimidazol-5-yl]-3-(4-phenoxyphenyl)urea]
- cumulative milk consumption by treated animals (female NMRI mice; oral dose 10 mg/kg by gavage): 5/2.74 mL
- Reduction in cumulative milk consumption as % of the control (female NMRI mice; oral dose 10 mg/kg by gavage): 38%
- IC50 (human MCH receptor): 130 nM

Structure (SMILES): CN(C)CCn1ccc2cc(NC(=O)Nc3ccc(Oc4ccccc4)cc3)ccc21 [Example 1, 1-[1-(2-Dimethylaminoethyl)-1H-indol-5-yl]-3-(4-phenoxyphenyl)urea]
- cumulative milk consumption by treated animals (female NMRI mice; oral dose 30 mg/kg by gavage): 5/2.28 mL
- Reduction in cumulative milk consumption as % of the control (female NMRI mice; oral dose 30 mg/kg by gavage): 30%
- IC50 (human MCH receptor): 150 nM
